Tested on: IFNγ-induced NO production in RAW264.7 mouse macrophages
Experiment: Suppression of IFNγ-induced nitric oxide production (Griess reagent)
Format: cell-based
Settings: 2 h pre-treatment (0-200 nM), then IFNγ 24 h, normalized to cell viability
Description: Nitric Oxide Production and Cell Viability.

[1] = Mus musculus, RAW264.7, RAW264.7 cells

SMILES | IC50 [1] [nM] | IC50 (RAW264.7 cells) [nM]
Cc1ccc(-c2c3c(nn2C)[C@@]2(C)C=C(C#N)C(=O)C(C)(C)[C@@H]2CC3)cc1 [TX63514] | 37 | 
Cc1cccc(-c2c3c(nn2C)[C@@]2(C)C=C(C#N)C(=O)[C@@H](C)[C@@H]2CC3)c1 [TX63650] | 6.1 | 
CNc1nc(C)nc2c1CC[C@H]1[C@H](C)C(=O)C(C#N)=C[C@]21C [TX63852] | 30 | 
COCO[C@H]1CCC[C@H]2C(C)(C)C(=O)C(C#N)=C[C@]12C [TX63364] | > 200 | 
CC1(C)C(=O)C(C#N)=C[C@]2(C)c3nn(-c4[nH]nc5c4CC[C@H]4C(C)(C)C(=O)C(C#N)=C[C@]54C)cc3CC[C@H]12 [TX63466] | 10.4 | 
Cn1nc2c(c1C(=O)O)CC[C@H]1C(C)(C)C(=O)C(C#N)=C[C@]21C [TX63631] | > 200 | 
Cc1nc(N2CCOCC2)c2c(n1)[C@@]1(C)C=C(C#N)C(=O)[C@@H](C)[C@@H]1CC2 [TX63758] | 55 | 
C[C@@H]1C(=O)C(C#N)=C[C@]2(C)c3nn(C)c(-c4nnn(C)n4)c3CC[C@@H]12 [TX63719] | 5.9 | 
COc1nc(OC)c2c(n1)[C@@]1(C)C=C(C#N)C(=O)[C@@H](C)[C@@H]1CC2 [TX63793] |  | 2.5
C[C@@H]1C(=O)C(C#N)=C[C@]2(C)c3nn(C)cc3CC[C@@H]12 [TX63551] | 49 | 
CC1(C)C(=O)C(C#N)=C[C@]2(C)c3c(cnn3-c3ccccc3)CC[C@@H]12 [TX63524] | 68 | 
C[C@@H]1C(=O)C(C#N)=C[C@]2(C)c3c(c(Br)nn3C)CC[C@@H]12 [TX63649] | 21 | 
C[C@@H]1C(=O)C(C#N)=C[C@]2(C)c3nn(C)c(-c4ccncc4)c3CC[C@@H]12 [TX63720] | 4.9 | 
COc1ccc(-c2ncc3c(n2)[C@@]2(C)C=C(C#N)C(=O)C(C)(C)[C@@H]2CC3)cc1 [TX63590] | 31 | 
Cn1nc2c(c1NC(=O)OC(C)(C)C)CC[C@H]1C(C)(C)C(=O)C(C#N)=C[C@]21C [TX63594] | > 200 | 
Cn1cc2c(n1)[C@@]1(C)C=C(C#N)C(=O)C(C)(C)[C@H]1C2 [TX63436] | > 200 | 
COc1cccc(-c2c3c(nn2C)[C@@]2(C)C=C(C#N)C(=O)[C@@H](C)[C@@H]2CC3)c1 [TX63664] | 8 | 
COc1ncnc2c1CC[C@H]1[C@H](C)C(=O)C(C#N)=C[C@]21C [TX63874] | 5.5 | 
C[C@@H]1C(=O)C(C#N)=C[C@]2(C)c3nn(C)cc3C[C@@H]12 [TX63533] | > 200 | 
Cc1noc(-c2c3c(nn2C)[C@@]2(C)C=C(C#N)C(=O)C(C)(C)[C@@H]2CC3)n1 [TX63760] | 6.2 | 
CC(=O)n1nc2c(c1-c1ccccc1)CC[C@H]1C(C)(C)C(=O)C(C#N)=C[C@]21C [TX63611] | 22 | 
CC1(C)C(=O)C(C#N)=C[C@]2(C)c3nn(C(=O)c4ccccc4)cc3CC[C@@H]12 [TX63642] | 147 | 
COc1nc(C2CC2)nc2c1CC[C@H]1[C@H](C)C(=O)C(C#N)=C[C@]21C [TX63761] | 8.9 | 
Cc1nnc(-c2c3c(nn2C)[C@@]2(C)C=C(C#N)C(=O)C(C)(C)[C@@H]2CC3)o1 [TX63735] | 15.6 | 
COc1nc(C(C)(C)C)nc2c1CC[C@H]1[C@H](C)C(=O)C(C#N)=C[C@]21C [TX63853] | 31 | 
C[C@@H]1C(=O)C(C#N)=C[C@]2(C)c3nn(C)c(-c4cncnc4)c3CC[C@@H]12 [TX63748] | 23 | 

SMILES | IC50 [1] [nM] | IC50 (RAW264.7 cells) [nM]
CC1(C)C(=O)C(C#N)=C[C@]2(C)c3ncncc3CC[C@@H]12 [TX63542] | 55 | 
CN1N=C2C(C)(CC[C@H]3C(C)(C)C(=O)C(C#N)=C[C@]23C)C1=O (some centres unmarked) [TX63692] | > 200 | 
CC1(C)C(=O)C(C#N)=C[C@]2(C)c3c(cnc4c(Br)cnn34)CC[C@@H]12 [TX63615] | 52 | 
COc1ccccc1-c1c2c(nn1C)[C@@]1(C)C=C(C#N)C(=O)C(C)(C)[C@@H]1CC2 [TX63509] | 38 | 
Cc1nnc(-c2c3c(nn2C)[C@@]2(C)C=C(C#N)C(=O)[C@@H](C)[C@@H]2CC3)o1 [TX63857] | 6.3 | 
COc1ncc2c(n1)[C@@]1(C)C=C(C#N)C(=O)C(C)(C)[C@@H]1CC2 [TX63528] | 85 | 
COc1nc(C)nc2c1CC[C@H]1C(C)(C)C(=O)C(C#N)=C[C@]21C [TX63595] | 20 | 
C[C@H]1C(=O)C(C#N)=C[C@@]2(C)c3nn(C)c(-c4ccccc4)c3CC[C@H]12 [TX63792] | 147 | 
CCCCNc1nc(C)nc2c1CC[C@H]1[C@H](C)C(=O)C(C#N)=C[C@]21C [TX63827] | 59 | 
Cn1nc2c(c1-c1ccccc1)CC[C@H]1C(Cc3ccccc3)(Cc3ccccc3)C(=O)C(C#N)=C[C@]21C [TX63601] | 150 | 
COc1nc(OC)c2c(n1)[C@]1(C)C=C(C#N)C(=O)[C@H](C)[C@H]1CC2 [TX63794] | 88.5 | 
Cn1nc2c(c1-c1ccccc1)CC[C@H]1CC(=O)C=C[C@]21C [TX63570] | > 200 | 
CC1(C)C(=O)C(C#N)=C[C@]2(C)c3[nH]c(=O)ncc3CC[C@@H]12 [TX63553] | > 200 | 
CC1(C)C(=O)C(C#N)=C[C@]2(C)c3c(cnc4ccnn34)CC[C@@H]12 [TX63627] | 38 | 
C[C@@H]1C(=O)C(C#N)=C[C@]2(C)c3nn(C)c(-c4cnn(C)c4)c3CC[C@@H]12 [TX63690] | 11 | 
CC1(C)C(=O)C(C#N)=C[C@]2(C)C(=O)c3cnn(C(C)(C)C)c3C[C@@H]12 [TX63451] | 137 | 
Cn1nc2c(c1-c1ccccc1)CC[C@H]1[C@H](c3ccccc3)C(=O)C(C#N)=C[C@]21C [TX63629] | 137 | 
CC1(C)C(=O)C(C#N)=C[C@]2(C)C(=O)c3cnn(-c4ccccc4)c3C[C@@H]12 [TX63456] | > 200 | 
C[C@@H]1C(=O)C(C(F)(F)F)=C[C@]2(C)c3nn(C)c(-c4ccccc4)c3CC[C@@H]12 [TX63829] | 22 | 
C[C@@H]1C(=O)C(C#N)=C[C@]2(C)c3nn(C)c(C(=O)N(C)C)c3CC[C@@H]12 [TX63655] | > 200 | 
COc1ccccc1-c1nc(OC)c2c(n1)[C@@]1(C)C=C(C#N)C(=O)[C@@H](C)[C@@H]1CC2 [TX63727] | 11.5 | 
Cc1cccc(-c2ncc3c(n2)[C@@]2(C)C=C(C#N)C(=O)C(C)(C)[C@@H]2CC3)c1 [TX63583] | 33 | 
CC(C)n1cnc(-c2c3c(nn2C)[C@@]2(C)C=C(C#N)C(=O)C(C)(C)[C@@H]2CC3)n1 [TX63905] | 129 | 
CC1(C)C(=O)C(C#N)=C[C@]2(C)[C@@H](O)CCC[C@@H]12 [TX63363] | > 200 | 
COc1nc(-c2cncnc2)nc2c1CC[C@H]1[C@H](C)C(=O)C(C#N)=C[C@]21C [TX63757] | 4.3 | 
Cc1ccccc1-c1c2c(nn1C)[C@@]1(C)C=C(C#N)C(=O)C(C)(C)[C@@H]1CC2 [TX63508] | 33 | 

SMILES | IC50 [1] [nM] | IC50 (RAW264.7 cells) [nM]
Cn1nc2c(c1C(=O)c1ccccc1)CC[C@H]1C(C)(C)C(=O)C(C#N)=C[C@]21C [TX63667] | 155 | 
Cn1nc2c(c1-c1ccccc1)CC[C@H]1C(C)(C)C(=O)C(C(F)(F)F)=C[C@]21C [TX63803] | 50 | 
Cn1nc2c(c1-c1ccccc1)CC[C@H]1C(C)(C)C(=O)[C@]3(C#N)O[C@@H]3[C@]21C [TX63834] | 105 | 
COc1nc(-c2ccncc2)nc2c1CC[C@H]1[C@H](C)C(=O)C(C#N)=C[C@]21C [TX63728] | 6.7 | 
Cn1nc2c(c1-c1ccc(Oc3ccccc3)cc1)CC[C@H]1C(C)(C)C(=O)C(C#N)=C[C@]21C [TX63587] | 40 | 
CC1(C)C(=O)C(C#N)=C[C@]2(C)c3nn(CC(F)(F)F)cc3CC[C@@H]12 [TX63454] | 134 | 
C[C@@H]1C(=O)C(C#N)=C[C@]2(C)c3nn(C)c(-c4ccccc4)c3CC[C@@H]12 [TX63791] | 2.3 | 
CC[C@@H]1C(=O)C(C#N)=C[C@]2(C)c3nn(C)cc3CC[C@@H]12 [TX63589] | 44 | 
CC1(C)C(=O)C(C#N)=C[C@]2(C)c3nn(CCO)cc3CC[C@@H]12 [TX63464] | > 200 | 
CC1=C2CCc3c(nn(C)c3-c3cccc(C)c3)[C@@]2(C)C=C(C#N)C1=O [TX63656] | > 200 | 
CCOC(=O)c1nc(OC)c2c(n1)[C@@]1(C)C=C(C#N)C(=O)[C@@H](C)[C@@H]1CC2 [TX63730] | 16 | 
Cc1nc(N(C)C)c2c(n1)[C@@]1(C)C=C(C#N)C(=O)[C@@H](C)[C@@H]1CC2 [TX63774] | 26.7 | 
C[C@@H]1C(=O)C(C#N)=C[C@]2(C)c3nc(-c4ccccc4)n(C)c(=O)c3CC[C@@H]12 [TX63666] | 25 | 
COc1c2c(nn1C)[C@@]1(C)C=C(C#N)C(=O)C(C)(C)[C@@H]1CC2 [TX63691] | 62 | 
C[C@@H]1C(=O)C(C#N)=C[C@]2(C)c3nn(C)c(-c4cn(C)[n+]([O-])c4)c3CC[C@@H]12 [TX63849] | > 200 | 
Cn1nc2c(c1-c1ccccc1)CCC1=CC(=O)C=C[C@@]12C [TX63578] | > 200 | 
CC1(C)C(=O)C(C#N)=C[C@]2(C)c3nn(C4CCCCC4)cc3CC[C@@H]12 [TX63444] | 140 | 
C[C@@H]1C(=O)[C@]2(C#N)O[C@@H]2[C@]2(C)c3nn(C)c(-c4ccccc4)c3CC[C@@H]12 [TX63848] | 9.5 | 
C[C@@H]1C(=O)C(C#N)=C[C@]2(C)c3nn(C)c(C#N)c3CC[C@@H]12 [TX63725] | 24 | 
Cn1nc2c(c1C(N)=O)CC[C@H]1C(C)(C)C(=O)C(C#N)=C[C@]21C [TX63619] | > 200 | 
C[C@@H]1C(=O)C(C#N)=C[C@]2(C)c3nn(C)c(-c4ccccn4)c3CC[C@@H]12 [TX63851] | 5.1 | 
Cn1nc2c(c1-c1ccc(Cl)cc1)CC[C@H]1C(C)(C)C(=O)C(C#N)=C[C@]21C [TX63486] | 48 | 
Cn1nc2c(c1-c1ccccc1)CC[C@H]1C3(CCCC3)C(=O)C(C#N)=C[C@]21C [TX63504] | 20 | 
CC1=C2CCc3c(nn(C)c3-c3cccc(F)c3)[C@@]2(C)C=C(C#N)C1=O [TX63663] | 108 | 
Cn1cc2c(n1)[C@@]1(C)C=C(C#N)C(=O)C3(CCCC3)[C@@H]1CC2 [TX63487] | 85 | 

Source: patent publication US11192852B2, “Pyrazolyl and pyrimidinyl tricyclic enones as antioxidant inflammation modulators” (REATA PHARMACEUTICALS, INC., priority 2010, dated 2021)
